Results from patent US10646596B2, “Near-infrared dye-bound transferrin, and contrast agent for photoacoustic imaging, including the near-infrared dye-bound transferrin” (CANON KABUSHIKI KAISHA, priority 2015, dated 2020).

What was measured:
[1] = tested on: colon 26 mouse colon cancer cells (subcutaneous tumor); test: Evaluation of tumor-imaging contrast by fluorescence imaging in cancer-bearing mouse; format: in vivo; conditions: for fluorescent signal from the tumor site in fluorescence image: 24 hours after administration, FIGURE; for Imaging contrast (fluorescence intensity of tumor site / normal site): 24 hours after tail vein administration, 10 nmol dye per mouse (Alexa Fluor 680-TF (2.0): 31 nmol)
From the text: In the fluorescence imaging experiment, a female outbred BALB/c Slc-nu/nu mouse (6-week-old at the time of purchase) (Japan SLC, Inc.) was used. For one week before the mouse was allowed to bear a cancer, normal diet and bed were used to habituate the mouse to an environment where the diet and drinking water were available ad libitum. Before about one week of the imaging experiment, 1×10^6 colon 26 mouse colon cancer cells (RIKEN) were subcutaneously injected into the femur area of the mouse to thereby prepare a cancer-bearing model mouse.
In order to evaluate the tumor-imaging contrast, the fluorescence intensity of a tumor site (measured area: 0.5×0.5 cm) and the fluorescence intensity (selected as a normal site, measured area: 0.5×0.5 cm) of the base of a leg were quantified from the fluorescence imaging data illustrated in FIGURE. The ratio of the intensities, namely, the value obtained by dividing the value of the fluorescence intensity of a tumor site by the value of the fluorescence intensity of a normal site, was expressed by a numeral value as an imaging contrast. […] A larger imaging contrast of the compound of the present invention than the imaging contrast of Alexa Fluor 680-TF (2.0) is considered to be due to the difference in tumor accumulation property, as described later. The number of the dye(s) labeled at which the highest imaging contrast was achieved was 4.8. On the other hand, when the number of the dye(s) labeled exceeded 8, a tendency of the imaging contrast to be reduced was observed.

[2] = Residual rate in blood (amount of dye in blood) in cancer-bearing mouse; format: in vivo; conditions: 24 hours after administration, tail vein blood
Procedure: (§1) The amount of the dye in a tumor and the amount of the dye in blood with respect to each mouse in the tumor-imaging experiment performed in Example 4 were quantitatively determined to thereby evaluate the tumor accumulation property and the residual rate in blood of each compound.
The residual rate in blood was expressed as the rate of dye transfer (% ID/g) to blood relative to the amount of the dye to be administered per gram of blood (1 mL when the specific gravity was assumed to be 1). A blood sample was taken from the tail vein of the mouse after 24 hours of administration, and the blood sample, 1% Triton (registered trademark) X-100 and DMSO were mixed in the plastic tube in a ratio of 2:9:9. The fluorescence intensity of the blood solution treated as described above was measured in the plastic tube using IVIS (registered trademark) Imaging System 200 Series (manufactured by XENOGEN) to thereby measure the amount of the dye in blood.

[3] = tested on: colon 26 mouse colon cancer cells (subcutaneous tumor); test: Tumor accumulation property (amount of dye in tumor) in cancer-bearing mouse; format: in vivo; conditions: 24 hours after administration; for Tumor/blood ratio: tumor accumulation / residual rate in blood
From the text: as §1
(§2) The tumor accumulation property was expressed as the rate of dye transfer (% ID/g) to a tumor relative to the amount of the dye to be administered per gram of the tumor. First, the mouse was euthanized by a carbon dioxide gas after 24 hours of administration, and thereafter the tumor was surgically resected. The tumor was transferred to a plastic tube, an aqueous 1% Triton-X100 solution was added at 1.25 times the weight of the tumor, and the tumor was crushed using a plastic pestle. Next, DMSO was added at 20.25 times the weight of the tumor tissue. The fluorescence intensity of the solution of the tumor crushed, treated as described above, was measured in the plastic tube using IVIS (registered trademark) Imaging System 200 Series (XENOGEN) to thereby measure the amount of the dye in the tumor.
(§3) The tumor/blood ratio was calculated by the above measurements. The ratio corresponds to the ratio of the tumor accumulation property to the residual rate in blood, and a higher ratio means a higher tumor-imaging ability.

[4] = in vivo; cited from earlier work
[5] = Tumor accumulation property (amount of dye in tumor) in cancer-bearing mouse; format: in vivo; conditions: mouse, 24 hours after administration
From the text: as §1, §2, §3

## iTF (8.4): Human transferrin covalently bound to ICG-Sulfo-OSu near-infrared dye; number of dye(s) labeled 8.4
[1]
  fluorescent signal from the tumor site in fluorescence image: the fluorescent signal from the tumor site was observed
  Imaging contrast (fluorescence intensity of tumor site / normal site): 2.3
[2]
  Residual rate in blood: 0.4 % ID/g
[3]
  Rate of tumor accumulation: 0.8 % ID/g
  Tumor/blood ratio: 1.9

## iTF (7.0): Human transferrin covalently bound to ICG-Sulfo-OSu near-infrared dye; number of dye(s) labeled 7.0
[1]
  fluorescent signal from the tumor site in fluorescence image: the fluorescent signal from the tumor site was observed
  Imaging contrast (fluorescence intensity of tumor site / normal site): 3.4
[2]
  Residual rate in blood: 1.8 % ID/g

## CC1(C)C(/C=C/C=C/C=C/C=C2/N(CCCCS(=O)(=O)[O-])c3ccc4ccccc4c3C2(C)C)=[N+](CCCCS(=O)(=O)[O-])c2ccc3ccccc3c21.[Na+] [ICG, indocyanine green, reference compound]
[1]
  fluorescent signal from the tumor site in fluorescence image: no fluorescent signal was observed
  Imaging contrast (fluorescence intensity of tumor site / normal site): 1.2
[4]
  half-life in blood: about several minutes
[2]; mouse, whole blood
  tissue uptake at 24 h: 0.1 %ID/g
[3]
  Rate of tumor accumulation: zero
[5]; tumor, read-out: Rate of tumor accumulation
  tissue uptake at 24 h: 0 %ID/g
[5]; tumor accumulation / residual rate in blood, read-out: Tumor/blood ratio
  Kp at 24 h: 0.1

## iTF (2.0): Human transferrin covalently bound to ICG-Sulfo-OSu near-infrared dye; number of dye(s) labeled 2.0
[1]
  fluorescent signal from the tumor site in fluorescence image: the fluorescent signal from the tumor site was observed
  Imaging contrast (fluorescence intensity of tumor site / normal site): 3.3
[2]
  Residual rate in blood: 2.8 % ID/g
[3]
  Tumor/blood ratio: 0.7

## Alexa Fluor 680-TF (2.0): Transferrin From Human Serum, Alexa Fluor 680 Conjugate, Life Technologies, Product No. T35357, number of dye(s) labeled 2.0 [reference compound]
[1]
  Imaging contrast (fluorescence intensity of tumor site / normal site): 1.2
[2]
  Residual rate in blood: 2.8 % ID/g
[3]
  Rate of tumor accumulation: 0.6 % ID/g
  Tumor/blood ratio: 0.2

## iTF (4.8): Human transferrin covalently bound to ICG-Sulfo-OSu near-infrared dye; number of dye(s) labeled 4.8
[1]
  fluorescent signal from the tumor site in fluorescence image: the fluorescent signal from the tumor site was observed
  Imaging contrast (fluorescence intensity of tumor site / normal site): 4.1
[2]
  Residual rate in blood: 2.1 % ID/g
[3]
  Tumor/blood ratio: 3.3

## iTF (8.3): Human transferrin covalently bound to ICG-Sulfo-OSu near-infrared dye; number of dye(s) labeled 8.3
[1]
  fluorescent signal from the tumor site in fluorescence image: the fluorescent signal from the tumor site was observed
  Imaging contrast (fluorescence intensity of tumor site / normal site): 3.3
[2]
  Residual rate in blood: 0.7 % ID/g
[3]
  Tumor/blood ratio: 2.9
